In ChEMBL document CHEMBL5291721, “A preclinical secondary pharmacology resource illuminates target-adverse drug reaction associations of marketed drugs” (Nat Commun, 2023):

Experiments:
Acetylcholinesterase = Acetylcholinesterase (Homo sapiens, UniProt P22303); type: functional
Adenosine receptor A3 = molecular target: T1, Adenosine receptor A3 (Homo sapiens, UniProt P0DMS8)
T1 sequence (P0DMS8 whole entry): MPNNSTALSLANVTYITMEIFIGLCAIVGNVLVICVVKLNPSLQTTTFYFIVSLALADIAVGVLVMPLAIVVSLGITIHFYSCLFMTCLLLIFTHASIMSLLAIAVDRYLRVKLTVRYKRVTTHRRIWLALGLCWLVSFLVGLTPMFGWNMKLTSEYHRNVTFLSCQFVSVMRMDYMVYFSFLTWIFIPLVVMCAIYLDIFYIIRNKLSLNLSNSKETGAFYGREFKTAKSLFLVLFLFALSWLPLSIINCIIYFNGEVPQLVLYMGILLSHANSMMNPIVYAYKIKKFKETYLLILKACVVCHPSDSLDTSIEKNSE

[1] = molecular target: T2, Alpha-1A adrenergic receptor (Homo sapiens, UniProt P35348); type: functional, cell-based
T2 sequence (P35348 whole entry): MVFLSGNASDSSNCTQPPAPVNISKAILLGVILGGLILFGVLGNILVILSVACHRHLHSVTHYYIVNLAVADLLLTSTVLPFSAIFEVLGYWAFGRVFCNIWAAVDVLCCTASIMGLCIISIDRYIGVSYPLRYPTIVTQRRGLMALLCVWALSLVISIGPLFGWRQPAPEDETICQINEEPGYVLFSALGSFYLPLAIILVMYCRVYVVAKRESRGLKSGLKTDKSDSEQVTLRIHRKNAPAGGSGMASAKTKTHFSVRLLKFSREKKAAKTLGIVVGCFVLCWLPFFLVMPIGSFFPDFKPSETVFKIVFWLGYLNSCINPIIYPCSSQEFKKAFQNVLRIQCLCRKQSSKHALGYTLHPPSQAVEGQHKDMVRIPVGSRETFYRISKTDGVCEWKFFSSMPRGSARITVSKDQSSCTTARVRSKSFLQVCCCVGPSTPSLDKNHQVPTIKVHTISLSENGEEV

[2] = molecular target: T3, Muscarinic acetylcholine receptor M1 (Homo sapiens, UniProt P11229); type: functional, cell-based
T3 sequence (P11229 whole entry): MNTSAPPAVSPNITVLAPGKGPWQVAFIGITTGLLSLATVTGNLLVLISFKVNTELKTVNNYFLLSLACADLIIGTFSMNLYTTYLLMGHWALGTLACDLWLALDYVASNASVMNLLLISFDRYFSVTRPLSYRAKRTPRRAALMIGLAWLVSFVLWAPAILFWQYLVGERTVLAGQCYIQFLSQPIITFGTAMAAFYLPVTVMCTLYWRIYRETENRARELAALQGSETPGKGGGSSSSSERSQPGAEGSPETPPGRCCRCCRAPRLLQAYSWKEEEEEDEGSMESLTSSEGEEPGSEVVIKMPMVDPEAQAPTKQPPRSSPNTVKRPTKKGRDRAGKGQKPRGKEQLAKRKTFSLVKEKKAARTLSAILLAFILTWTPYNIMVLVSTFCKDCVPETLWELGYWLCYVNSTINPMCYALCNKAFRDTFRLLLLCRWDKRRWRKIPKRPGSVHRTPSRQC

D(1A) dopamine receptor = D(1A) dopamine receptor (Homo sapiens, UniProt P21728)
Prothrombin = Prothrombin (Homo sapiens, UniProt P00734); type: functional
Histamine H3 receptor = Histamine H3 receptor (Homo sapiens, UniProt Q9Y5N1)
Mu-type opioid receptor = Mu-type opioid receptor (Homo sapiens, UniProt P35372)
Progesterone receptor = molecular target: T4, Progesterone receptor (Homo sapiens, UniProt P06401)
T4 sequence (P06401 whole entry): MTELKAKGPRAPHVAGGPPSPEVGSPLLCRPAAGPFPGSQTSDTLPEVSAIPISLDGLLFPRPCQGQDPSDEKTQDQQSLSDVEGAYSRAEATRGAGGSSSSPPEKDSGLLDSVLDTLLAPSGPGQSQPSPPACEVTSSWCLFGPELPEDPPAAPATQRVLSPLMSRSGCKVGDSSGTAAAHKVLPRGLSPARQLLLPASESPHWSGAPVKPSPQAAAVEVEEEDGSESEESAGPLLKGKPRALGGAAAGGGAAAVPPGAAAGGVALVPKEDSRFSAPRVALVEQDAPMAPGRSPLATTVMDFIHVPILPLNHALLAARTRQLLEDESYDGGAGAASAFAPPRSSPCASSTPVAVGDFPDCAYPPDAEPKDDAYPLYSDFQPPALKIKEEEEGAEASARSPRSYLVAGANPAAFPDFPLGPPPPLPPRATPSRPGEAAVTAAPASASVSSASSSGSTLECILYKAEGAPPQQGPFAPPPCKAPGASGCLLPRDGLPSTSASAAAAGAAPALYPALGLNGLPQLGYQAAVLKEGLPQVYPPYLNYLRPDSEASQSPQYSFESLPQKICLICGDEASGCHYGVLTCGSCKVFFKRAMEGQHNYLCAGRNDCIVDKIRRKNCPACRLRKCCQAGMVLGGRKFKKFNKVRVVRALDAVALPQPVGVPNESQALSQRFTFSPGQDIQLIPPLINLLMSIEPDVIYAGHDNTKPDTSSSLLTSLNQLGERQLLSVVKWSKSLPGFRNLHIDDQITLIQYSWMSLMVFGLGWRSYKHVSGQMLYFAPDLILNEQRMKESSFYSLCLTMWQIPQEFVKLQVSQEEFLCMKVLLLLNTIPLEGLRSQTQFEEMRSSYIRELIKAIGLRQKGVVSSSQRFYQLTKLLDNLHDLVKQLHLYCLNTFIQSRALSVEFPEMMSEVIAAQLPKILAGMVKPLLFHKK

[3] = molecular target: Prostaglandin G/H synthase 1 (Homo sapiens, UniProt P23219); type: functional
[4] = molecular target: Sodium-dependent noradrenaline transporter (Homo sapiens, UniProt P23975)
Thromboxane A2 receptor = molecular target: T5, Thromboxane A2 receptor (Homo sapiens, UniProt P21731); type: functional, cell-based
T5 sequence (P21731 whole entry): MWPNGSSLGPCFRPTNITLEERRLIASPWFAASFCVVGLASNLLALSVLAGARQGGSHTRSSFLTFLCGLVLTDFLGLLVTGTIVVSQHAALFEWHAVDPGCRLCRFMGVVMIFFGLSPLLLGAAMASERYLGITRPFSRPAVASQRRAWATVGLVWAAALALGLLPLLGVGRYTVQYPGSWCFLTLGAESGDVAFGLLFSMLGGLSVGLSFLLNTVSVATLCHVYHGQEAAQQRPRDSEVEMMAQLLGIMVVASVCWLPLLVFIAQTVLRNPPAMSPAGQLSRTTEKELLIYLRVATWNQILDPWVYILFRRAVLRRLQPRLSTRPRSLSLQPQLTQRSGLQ
Also: assay procedure not described here.

Sequence of Mu-type opioid receptor (P35372 whole entry): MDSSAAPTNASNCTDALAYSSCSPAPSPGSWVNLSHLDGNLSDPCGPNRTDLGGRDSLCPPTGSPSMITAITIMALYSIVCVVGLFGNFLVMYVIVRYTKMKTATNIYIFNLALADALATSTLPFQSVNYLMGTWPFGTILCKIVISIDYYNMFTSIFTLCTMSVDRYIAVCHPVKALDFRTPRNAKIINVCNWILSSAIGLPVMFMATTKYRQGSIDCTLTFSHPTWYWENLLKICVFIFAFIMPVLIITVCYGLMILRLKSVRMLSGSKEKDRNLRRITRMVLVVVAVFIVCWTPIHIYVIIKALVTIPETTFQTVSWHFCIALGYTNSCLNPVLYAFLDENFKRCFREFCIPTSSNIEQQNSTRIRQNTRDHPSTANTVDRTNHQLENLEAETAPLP
Sequence of D(1A) dopamine receptor (P21728 whole entry): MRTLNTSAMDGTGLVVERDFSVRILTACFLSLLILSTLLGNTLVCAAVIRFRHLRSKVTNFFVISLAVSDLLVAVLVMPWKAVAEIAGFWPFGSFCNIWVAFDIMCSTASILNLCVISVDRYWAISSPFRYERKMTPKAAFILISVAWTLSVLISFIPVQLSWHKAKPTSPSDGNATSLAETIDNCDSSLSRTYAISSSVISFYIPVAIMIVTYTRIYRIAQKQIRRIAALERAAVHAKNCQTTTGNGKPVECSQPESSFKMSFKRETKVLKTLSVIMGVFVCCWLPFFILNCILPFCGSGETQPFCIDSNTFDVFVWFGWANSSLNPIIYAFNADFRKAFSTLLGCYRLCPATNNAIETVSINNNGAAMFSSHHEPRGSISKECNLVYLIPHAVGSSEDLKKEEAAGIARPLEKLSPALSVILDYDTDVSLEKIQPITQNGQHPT
Sequence of Prostaglandin G/H synthase 1 (P23219 whole entry): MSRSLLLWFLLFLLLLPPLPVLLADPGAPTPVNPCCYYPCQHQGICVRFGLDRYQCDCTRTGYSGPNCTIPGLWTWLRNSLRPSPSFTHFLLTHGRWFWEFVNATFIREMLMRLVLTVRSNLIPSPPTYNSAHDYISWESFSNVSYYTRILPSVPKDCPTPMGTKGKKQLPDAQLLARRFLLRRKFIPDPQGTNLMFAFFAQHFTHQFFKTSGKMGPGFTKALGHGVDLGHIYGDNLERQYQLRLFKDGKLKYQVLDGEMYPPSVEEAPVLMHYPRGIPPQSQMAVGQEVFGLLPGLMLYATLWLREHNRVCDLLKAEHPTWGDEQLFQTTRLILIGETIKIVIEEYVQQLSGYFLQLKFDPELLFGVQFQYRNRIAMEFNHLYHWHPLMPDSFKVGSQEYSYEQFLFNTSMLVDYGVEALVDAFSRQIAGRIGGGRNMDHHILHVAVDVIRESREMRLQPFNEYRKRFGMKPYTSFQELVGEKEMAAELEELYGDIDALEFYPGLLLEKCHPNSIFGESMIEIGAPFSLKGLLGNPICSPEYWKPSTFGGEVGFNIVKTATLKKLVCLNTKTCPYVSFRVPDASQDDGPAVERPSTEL
Sequence of Histamine H3 receptor (Q9Y5N1 whole entry): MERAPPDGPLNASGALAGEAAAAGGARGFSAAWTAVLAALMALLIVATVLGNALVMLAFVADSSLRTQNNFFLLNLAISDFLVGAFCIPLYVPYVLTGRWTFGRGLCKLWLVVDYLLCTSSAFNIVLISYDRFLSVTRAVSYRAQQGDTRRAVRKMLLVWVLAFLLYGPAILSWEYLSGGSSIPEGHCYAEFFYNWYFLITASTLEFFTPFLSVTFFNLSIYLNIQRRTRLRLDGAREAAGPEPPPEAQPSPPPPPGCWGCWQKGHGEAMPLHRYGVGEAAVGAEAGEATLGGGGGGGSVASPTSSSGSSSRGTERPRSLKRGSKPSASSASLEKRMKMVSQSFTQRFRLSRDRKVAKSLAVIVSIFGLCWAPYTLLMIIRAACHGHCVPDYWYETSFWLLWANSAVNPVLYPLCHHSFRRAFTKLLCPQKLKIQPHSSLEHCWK
Sequence of Acetylcholinesterase (P22303 whole entry): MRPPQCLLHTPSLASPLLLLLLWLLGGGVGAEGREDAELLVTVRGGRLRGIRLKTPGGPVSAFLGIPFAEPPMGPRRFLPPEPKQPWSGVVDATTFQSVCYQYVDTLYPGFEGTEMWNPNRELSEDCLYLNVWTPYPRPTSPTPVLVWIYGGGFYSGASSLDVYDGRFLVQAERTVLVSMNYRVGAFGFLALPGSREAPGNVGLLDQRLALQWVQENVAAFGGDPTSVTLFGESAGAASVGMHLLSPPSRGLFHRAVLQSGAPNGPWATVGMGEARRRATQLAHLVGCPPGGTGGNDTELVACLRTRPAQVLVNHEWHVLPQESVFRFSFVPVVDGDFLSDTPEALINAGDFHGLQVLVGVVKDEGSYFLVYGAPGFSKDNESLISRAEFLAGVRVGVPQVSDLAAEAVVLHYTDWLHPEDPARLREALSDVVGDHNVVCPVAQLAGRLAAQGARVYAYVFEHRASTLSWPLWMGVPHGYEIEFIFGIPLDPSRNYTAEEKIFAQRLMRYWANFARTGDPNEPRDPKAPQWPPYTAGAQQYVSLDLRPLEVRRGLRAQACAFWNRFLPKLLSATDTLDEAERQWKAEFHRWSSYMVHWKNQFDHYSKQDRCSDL
Sequence of Sodium-dependent noradrenaline transporter (P23975 whole entry): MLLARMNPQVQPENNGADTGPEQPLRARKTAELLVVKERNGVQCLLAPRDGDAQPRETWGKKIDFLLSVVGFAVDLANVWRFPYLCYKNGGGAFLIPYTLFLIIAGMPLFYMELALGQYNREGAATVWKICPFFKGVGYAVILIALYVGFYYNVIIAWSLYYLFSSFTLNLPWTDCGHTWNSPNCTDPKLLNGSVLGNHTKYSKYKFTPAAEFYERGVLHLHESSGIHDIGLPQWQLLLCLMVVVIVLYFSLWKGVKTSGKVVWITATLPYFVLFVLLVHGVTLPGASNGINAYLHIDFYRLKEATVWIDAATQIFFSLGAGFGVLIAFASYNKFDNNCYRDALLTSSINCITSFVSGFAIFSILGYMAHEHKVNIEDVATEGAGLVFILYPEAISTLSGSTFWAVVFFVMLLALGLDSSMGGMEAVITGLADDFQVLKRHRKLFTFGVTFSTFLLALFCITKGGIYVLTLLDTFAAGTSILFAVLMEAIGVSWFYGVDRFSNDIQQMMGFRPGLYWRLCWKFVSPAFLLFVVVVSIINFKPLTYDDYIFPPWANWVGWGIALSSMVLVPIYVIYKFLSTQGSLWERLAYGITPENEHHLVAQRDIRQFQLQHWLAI

Compound	AC50 (Acetylcholinesterase)	AC50 (Adenosine receptor A3)	AC50 [1]	AC50 [2]	AC50 (D(1A) dopamine receptor)	AC50 (Prothrombin)	AC50 (Histamine H3 receptor)	AC50 (Mu-type opioid receptor)	AC50 (Progesterone receptor)	AC50 [3]	AC50 [4]	AC50 (Thromboxane A2 receptor)
O=C(Nc1ccc(Cl)cc1)Nc1ccc(Cl)c(Cl)c1 [TRICLOCARBAN]	> 30 µM	2.08 µM	> 30 µM	0.702 µM	> 30 µM	> 30 µM	> 30 µM	4.85 µM	> 30 µM	> 30 µM	0.863 µM	> 30 µM
CCOc1ccccc1OCC1CNCCO1 (stereo unspecified) [VILOXAZINE]	> 30 µM	> 30 µM	> 30 µM	> 30 µM	> 30 µM	> 30 µM	> 30 µM	> 30 µM	> 30 µM	> 30 µM	0.362 µM	> 30 µM
OC[C@@H](O)[C@H](O)[C@@H](O)CO [XYLITOL]	> 30 µM	> 30 µM	> 30 µM	> 30 µM	> 30 µM	> 30 µM	> 30 µM	> 30 µM	> 30 µM	> 30 µM	> 30 µM	> 30 µM
